The source of these data is patent US11419914B2 (Serenity Pharmaceuticals LLC, priority 2009, dated 2022).

In data set [1] the test system is human adult subjects in a water loaded state. As to the kind of experiment: Antidiuretic effect (urine output, urine osmolarity, duration) in water loaded subjects. Format: in vivo. The method, then: (§1) The open-label preliminary study of the effects and pharmacokinetics of the prototype dispensers was conducted with six male and six female healthy, water loaded, non-smoking volunteer subjects, following the protocol described generally below. In summary, each subject was dosed up to four times over a period of one week with dosing administered every other day. […] All subjects were screened prior to the first treatment, including evaluations of medical history, complete physical exam including nasopharyngeal exam, serum chemistry including serum osmolality, urinalysis including urine osmolality.
On day one all subjects were asked to have his/her morning void prior to breakfast, and thereafter subjects started the water loading process. […] To achieve a steady state diuresis, the subjects were directed to drink a volume of water corresponding to at least 1.5% and up to 3% of body weight. The water loading process started about two hours prior to the dosing of the first subject. Subjects were asked to void every 20 minutes. To ensure continuous water loaded state, the subjects replaced their urinary output loss with an equivalent amount of fluid. Insensible loss was not measured or replaced. When the urinary output rate exceeded 10 ml/min in two consecutive measurements (defined as water loaded state) in the subjects, dosing began. Subjects were maintained in the water loaded state with equivalent fluid intake versus fluid loss.
Other than the dose level, all procedures were the same as those described for day one.

Data set [2] deals with adult patients with nocturia. Format: in vivo, human. Conditions: 500 and 1000 ng (one or two sprays intranasally). The protocol:
A second separate study in adult patients with nocturia established that doses of 500 and 1000 ng (one or two sprays administered intranasally) produced dramatic therapeutic decreases in the number of night time urinary voids equal to or less than one per night in 41 of 43 patients.

For data set [3] the following is noted: in vivo, cited from earlier work.
A short description of another data set: clinical. Conditions: human, in vivo, inhaled or intranasal. The method, then: as §1
On day one all subjects were asked to have his/her morning void prior to breakfast, and thereafter subjects started the water loading process. […] Insensible loss was not measured or replaced. […]
Blood sampling for pharmacokinetic determinations was performed at 1, 1.5, 2, 3, 4 and 6 hours post dose. […] A plasma concentration value below the limit of quantitation (“LOQ”) followed by values above the limit was set at ‘LOQ/2’ for the analysis and for the descriptive statistics on concentrations. […]
Assay values below the level of detection that occurred between two non-zero concentrations were considered to be “missing” for purposes of calculating the AUC. […] Accordingly, an average terminal half-life (Avg T1/2) was calculated for each subject that included a treatment with evaluable half-lives in that subject. […]

In general, half-life refers to how long it takes for the measured level to halve. Low values mean fast loss, high ones slow loss.

Like-named read-outs stand apart in the source and are kept apart here.

On to `NC(=O)CC[C@@H]1NC(=O)[C@H](Cc2ccccc2)NC(=O)[C@H](Cc2ccc(O)cc2)NC(=O)CCSSC[C@@H](C(=O)N2CCC[C@H]2C(=O)N[C@H](CCCN=C(N)N)C(=O)NCC(N)=O)NC(=O)[C@H](CC(N)=O)NC1=O` [desmopressin, 1-desamino-8-D-arginine vasopressin], for which the “time urine osmolarity remained greater than about 400 mOsmol/Kg” value in data set [1] (after 2 μg nasally) is reported as “about 250 minutes”. Moreover, the “period urine output remained less than 8 ml/minute” value in data set [1] (after 2000 ng nasally) is on record as “up to 400 minutes”. Further, the mean urine output entry in data set [1] (within 20 minutes after 2000 ng nasally, water loaded men and women) was “less than 8 ml/minute”. The mean urine osmolarity entry in data set [1] (within 40 minutes after 2 μg nasally) is “greater than 400 mOsmol/kg”. Besides, the “patients with night time urinary voids equal to or less than one per night” value in data set [2] is 41 of 43. Moreover, the bioavailability in data set [3] (human, inhaled or intranasal) is on record as 3-5%; in data set [3] (po) it was “far less than one percent”. In addition, the half life in data set [3] (human) is at least 1.5 h. For the same compound, the half-life in the data set “clinical” (both sexes, T1/2) is 1.13 ± 0.3 h. The compound further showed a T1/2 in the data set “clinical” (both) of 1.33 ± 0.56 h.
